Measured values: patent publication US20190112316A1, “THIAZOLO[3,2-A] PYRIMIDINONE AND OTHER HETEROBICYCLIC PYRIMIDINONE COMPOUNDS FOR USE IN MEDICAL THERAPY” (priority 2015, published 2019)
≈ marks a conversion by molar mass, not a printed value.

Legend:
[1] = Compound solubility in water; assay type: physicochemical
[2] = molecular target: T1, glucocerebrosidase (Gcase) (Homo sapiens, UniProt P04062); assay: Glucocerebrosidase (Gcase) activation assay, 4-methylumbelliferyl-beta-D-glucopyranoside substrate, with saposin C; assay type: biochemical; settings: for activation at 0.1 µM: read-out: Percent Gcase Activation 0.1 μM Test Compound; for activation at 1 µM: read-out: Percent Gcase Activation 1 μM Test Compound
T1 construct: micellar solution containing 10 nM GCase and 100 nM saposin C (Enzo ALX-201-262-C050)
T1 sequence (P04062 40-536): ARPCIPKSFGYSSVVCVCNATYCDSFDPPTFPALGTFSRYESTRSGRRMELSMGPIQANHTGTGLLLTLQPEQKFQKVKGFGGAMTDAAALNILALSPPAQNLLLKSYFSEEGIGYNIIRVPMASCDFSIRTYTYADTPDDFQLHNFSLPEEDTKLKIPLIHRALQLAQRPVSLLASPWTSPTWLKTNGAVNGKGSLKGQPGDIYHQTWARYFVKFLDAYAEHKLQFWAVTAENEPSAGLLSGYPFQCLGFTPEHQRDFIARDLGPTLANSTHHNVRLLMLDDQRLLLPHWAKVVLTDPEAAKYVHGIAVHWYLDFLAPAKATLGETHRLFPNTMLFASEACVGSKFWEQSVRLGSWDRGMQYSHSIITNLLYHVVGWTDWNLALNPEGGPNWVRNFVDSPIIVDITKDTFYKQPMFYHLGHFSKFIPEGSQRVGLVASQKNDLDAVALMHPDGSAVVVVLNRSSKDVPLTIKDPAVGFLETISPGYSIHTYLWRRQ
Experimental: A 484 μL aliquot of a 1.0 mg/mL solution of phosphatidylserine (PS) (Sigma P7769) in chloroform was evaporated under a stream of nitrogen for 1 hour. The lipid film was dissolved over 4 minutes of vigorous vortexing in 40 mL of 176 mM K2HPO4/50 mM citric acid (pH 4.7) containing 7.5 μL of triton X-100, resulting in a mixed micellar preparation with a composition of 0.32 mM triton and 0.37 mol % PS. 4-Methylumbelliferyl-beta-D-glucopyranoside (ACROS-337025000) was dissolved in the micellar solution to a final concentration of 2 mM for use as the reaction substrate.
Test compounds were diluted to the desired concentrations with dimethylsulfoxide (DMSO) from 10 mM stocks, and 0.41 μL of the DMSO compound mixture was added to 100 μL of micellar solution containing 10 nM GCase and 100 nM saposin C (Enzo ALX-201-262-C050). Pre-incubation was allowed to occur for 30 minutes at room temperature, after which the reaction was initiated by combining 25 μL of substrate solution with 25 μL of compound/GCase/saposin mixture. The reaction proceeded for 15 minutes at room temperature and was stopped by adding 150 μL of 1M glycine, pH 12.5. The endpoint of the reaction was monitored by measuring fluorescence intensity (excitation: 365 nm; emission: 440 nm) on a SpectraMax i3 instrument (Molecular Devices). Test compounds were screened at 1.0 and 0.1 μM final concentration, and subsequent 8-point dose response curves were obtained using 3-fold dilutions from a maximum final concentration of 5 μM.

| SMILES | solubility [1] | activation at 0.1 µM [2] | activation at 1 µM [2] |
| --- | --- | --- | --- |
| O=C(NCC1COc2ccccc2O1)c1cnc2sccn2c1=O (stereo not drawn) | 22.6 µg/mL (≈ 65.8 µM) | < 5% | < 5% |
| CCc1ccc(CCNC(=O)c2cnc3sccn3c2=O)cc1 | 2.5 µg/mL (≈ 7.64 µM) | < 5% | 5 to 20% |
| CC1CCC(NC(=O)c2cnc3n(c2=O)CCS3)CC1 (stereo not drawn) | 21.4 µg/mL (≈ 72.9 µM) | < 5% | 5 to 20% |
| CCCCC1CCC(NC(=O)c2cnc3n(c2=O)CC(C)S3)CC1 (stereo not drawn) | 1.2 µg/mL (≈ 3.43 µM) | < 5% | > 20% |
| O=C(Nc1ccc(-n2ccnc2)cc1)c1cnc2n(c1=O)CCS2 | 0.8 µg/mL (≈ 2.36 µM) | < 5% | < 5% |
| Cc1cccc2ncc(C(=O)NC3CCCCCC3)c(=O)n12 | 9.3 µg/mL (≈ 31.1 µM) | < 5% | > 20% |
| O=C(NC1CCCC2(CCCCO2)C1)c1cnc2n(c1=O)CCS2 (stereo not drawn) | 36 µg/mL (≈ 103 µM) | < 5% | < 5% |
| CC(C)c1ccc(NC(=O)c2cnc3sccn3c2=O)cn1 | 13.8 µg/mL (≈ 43.9 µM) | < 5% | < 5% |
| CCc1ccc(CNC(=O)c2cnc3sccn3c2=O)cc1 | 17 µg/mL (≈ 54.2 µM) | < 5% | 5 to 20% |
| CCC(C)c1ccc(NC(=O)c2cnc3c(C)cccn3c2=O)cc1 (stereo not drawn) | 0.5 µg/mL (≈ 1.49 µM) | < 5% | 5 to 20% |
| CCCCC1CCC(NC(=O)c2cnc3n(c2=O)C(C)CS3)CC1 (stereo not drawn) | 1.3 µg/mL (≈ 3.72 µM) | 5 to 20% | > 20% |
| O=C(NC1CCOCC1)c1cnc2n(c1=O)CCS2 | 26.3 µg/mL (≈ 93.5 µM) | < 5% | 5 to 20% |
| CCc1ccc(NC(=O)c2cnc3n(c2=O)CCS3)cc1 | 5.1 µg/mL (≈ 16.9 µM) | < 5% | > 20% |
| CCCCC1CCC(NC(=O)c2cnc3cccc(C)n3c2=O)CC1 (stereo not drawn) | 0.4 µg/mL (≈ 1.17 µM) | 5 to 20% | > 20% |
| Cc1cccc2ncc(C(=O)Nc3ccc4c(c3)CN(C)C4)c(=O)n12 | 35.4 µg/mL (≈ 106 µM) | < 5% | < 5% |
| CCC(C)c1ccc(NC(=O)c2cnc3ccc(C)cn3c2=O)cc1 (stereo not drawn) | 0.05 µg/mL (≈ 0.149 µM) | < 5% | 5 to 20% |
| O=C(Nc1ccc2c(c1)CCC2)c1cnc2n(c1=O)CCS2 | 0.3 µg/mL (≈ 0.957 µM) | < 5% | 5 to 20% |
| O=C(NC1CCCc2ccccc21)c1cnc2n(c1=O)CCS2 (stereo not drawn) | 7.1 µg/mL (≈ 21.7 µM) | < 5% | > 20% |
| O=C(Nc1ccc2c(c1)OCCO2)c1cnc2n(c1=O)CCS2 | 9.5 µg/mL (≈ 28.7 µM) | < 5% | < 5% |
| Cc1cccc2ncc(C(=O)NC3CCC(c4ccccc4)CC3)c(=O)n12 (stereo not drawn) | 3.5 µg/mL (≈ 9.68 µM) | 5 to 20% | > 20% |
| Cc1cccc2ncc(C(=O)NC3CCc4ccccc4C3)c(=O)n12 (stereo not drawn) | 4.3 µg/mL (≈ 12.9 µM) | < 5% | 5 to 20% |
| CCN1CCN(c2ccc(NC(=O)c3cnc4cccc(C)n4c3=O)cc2)CC1 | 33.3 µg/mL (≈ 85.1 µM) | < 5% | 5 to 20% |
| Cc1cccc2ncc(C(=O)NC3CCc4ccccc43)c(=O)n12 (stereo not drawn) | 6.8 µg/mL (≈ 21.3 µM) | < 5% | > 20% |
| Cc1cccc2ncc(C(=O)Nc3ccc(N4CCCCC4)cc3)c(=O)n12 | 1.4 µg/mL (≈ 3.86 µM) | < 5% | < 5% |
| CN1Cc2ccc(NC(=O)c3cnc4n(c3=O)CCS4)cc2C1 | 32.4 µg/mL (≈ 98.7 µM) | < 5% | 5 to 20% |
| O=C(Nc1ccc(-c2cccs2)cc1)c1cnc2n(c1=O)CCS2 |  | 5 to 20% | 5 to 20% |
| COCC#Cc1ccc(NC(=O)c2cnc3n(c2=O)CCS3)cc1 |  | 5 to 20% | 5 to 20% |
| CCc1ccc(NC(=O)c2cnc3scc(-c4ccccc4)n3c2=O)cc1 |  |  | > 20% |
| Cc1cc(C)cc(NC(=O)c2cnc3sccn3c2=O)c1 |  |  | 5 to 20% |
